The results in this text go back to ChEMBL document CHEMBL1121374, “Analgesic narcotic antagonists. 4. 7-Methyl-N-(cycloalkylmethyl)-3-hydroxymorphinan-6-ones and -isomorphinan-6-ones” (1980).

The subject of assay [1] is Mus musculus. In words: Compound was tested for analgesia in mouse writhing assay by subcutaneous administration. The assay is classed as functional. The note with it: Mus musculus, sc; read-out: ED50. On the technique in general: Writhing tests count abdominal constrictions after an irritant is injected.
The subject of assay [2] is Rattus norvegicus. Description: Compound was tested for antagonist in rat tail flick assay by subcutaneous administration at dose 27 umol/kg; IA means inactive. Format: functional, organism-based. On the technique in general: Hot-plate and tail-flick tests time the reaction to a heat stimulus.
Assay [3] has as its system Rattus norvegicus. In words: Compound was tested for antagonist in rat tail flick assay by intraperitoneal administration at dose 25 umol/kg; IA means inactive. The assay is classed as functional, organism-based.
Assay [4] concerns Rattus norvegicus. Description: Compound was tested for antagonist in rat tail flick assay by subcutaneous administration at dose 33 umol/kg; IA means inactive. Format: functional, organism-based.
Assay [5] has as its system Mus musculus. In words: Compound was tested for analgesia in mouse writhing assay by subcutaneous administration; IA means inactive. The assay is classed as functional, organism-based.
Assay [6] relates to Rattus norvegicus. Description: Compound was tested for antagonist in rat tail flick assay by subcutaneous administration at dose 29 umol/kg; IA means inactive. Format: functional, organism-based.
For assay [7], the species on record is Rattus norvegicus. In words: Ratio of agonist potency to antagonist potency was determined. Format: functional.
In assay [8] the test system is Mus musculus. Description: Compound was tested for analgesia in mouse writhing assay by subcutaneous administration short duration at 5 min. Format: functional. The note with it: sc.
The subject of assay [9] is Rattus norvegicus. Description: Antagonist activity in rat tail flick assay by intraperitoneal administration. Format: functional.

Activity calls are given as the source filed them. The rule behind the calls is not given here.

With `CC[C@@H]1[C@@H](C)C(=O)CC23CCN(C)C(Cc4ccc(OC)cc42)[C@@H]13` (stereo partly specified), in [1], the ED50 was determined as 7.42 µmol/kg. For the same compound, the ED50 entry in [2] was “inactive”.

Consider `C[C@H]1C[C@H]2C3Cc4ccc(O)cc4C2(CCN3CC2CCC2)CC1=O` (stereo in doubt; 13C), for which the ED50 result in assay [3] was “inactive”.

For `COc1ccc2c(c1)C13CCN(C)C(C2)[C@H]1C[C@@H](C)C(=O)C3` (stereo in doubt; 6T a), the ED50 entry in assay [4] is “inactive”.

As for `C=CCN1CC[C@]23c4c5ccc(O)c4O[C@H]2C(=O)CC[C@@]3(O)[C@H]1C5` [NALOXONE], the ED50 entry in [5] was “inactive”.

With `COc1ccc2c(c1)C13CCN(C)C(C2)[C@H]1[C@H](C)[C@@H](C)C(=O)C3` (stereo partly specified), in assay [1], the ED50 came to 3.72 µmol/kg. The ED50 entry in [6] is “inactive”.

Turning to `C[C@@H]1C[C@@H]2C3Cc4ccc(O)cc4C2(CCN3CC2CC2)CC1=O` (stereo in doubt; 12T a), in assay [7], the Ratio was determined as 1.5. Moreover, the ED50 in [8] came to 1.77 µmol/kg; in assay [9], 1.18 µM/kg.

As for `COc1ccc2c(c1)C13CCN(CC4CCC4)C(C2)[C@@H]1C[C@H](C)C(=O)C3` (stereo partly specified), the ED50 entry in assay [3] was “inactive”.
